Source: patent publication US9724309B2, “Film-form preparation and method for producing the same” (NITTO DENKO CORPORATION, priority 2010, dated 2017)

Experiment: Particle size of drug particles by electron microscope
Assay type: physicochemical
Conditions: 200 particles
Method: The various drug particles used in the Examples and Comparative Examples were obtained passing the powder through a 32 μm, 53 μm, 90 μm sieve after pulverization, or obtained fine particles by a jet mill (product of Hosokawa Micron Group, spiral jet mill model 50AS) or a spray dryer (product of Büchi Labortechnik AG, mini spray dryer model B-290) after pulverization. The particle sizes of these drug particles were measured by electron microscope (product of Hitachi High-Technologies Corp., model TM-1000) and the 50 vol % average particle size was calculated from the measurement results of 200 particles. This value was used as the particle size index of the particles.

Structure (SMILES) | 50 vol % average particle size [um]
Cn1c(=O)c2[nH]cnc2n(C)c1=O [Aminophyllin particles, Aminophyllin] | 4.3
N[C@@H](CCC(=O)N[C@@H](CS)C(=O)NCC(=O)O)C(=O)O [Glutathione (reduced form) particles, Glutathione (reduced form)] | 5.3
COc1cc(S(=O)(=O)[O-])ccc1O.O.[K+] [Potassium guaiacolsulfonate particles A, Potassium guaiacolsulfonate] | 2.1
COc1cc(S(=O)(=O)[O-])ccc1O.O.[K+] [Potassium guaiacolsulfonate particles B, Potassium guaiacolsulfonate] | 40.4
COc1cc(S(=O)(=O)[O-])ccc1O.O.[K+] [Potassium guaiacolsulfonate particles C, Potassium guaiacolsulfonate] | 80.4
COc1cc(S(=O)(=O)[O-])ccc1O.O.[K+] [Potassium guaiacolsulfonate particles, Potassium guaiacolsulfonate] | 5.0
